Reference: US12643871B2, “Aryl formamide compound containing chiral sulfur oxide or salt thereof, preparation method, herbicidal composition and use thereof” (Qingdao Kingagroot Chemical Compound Co., Ltd., priority 2019, dated 2026)

Experiments:
Assay in all cases: Weeding effect in post-emergence stage
Type in all cases: in vivo
Settings in all cases: 250 g/ha; 2 leaf stage; 15 days after application; fresh weight control rate
Digitaria sanguinalis = system: Digitaria sanguinalis
In short: (§1)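 Pot-grown weeds sprayed post-emergence at the 2-leaf stage, 2 weeks after sowing, with compound in acetone/Tween 80 plus 1.5 L/ha methyl oleate concentrate at 500–15 g/ha. Fresh-weight growth control scored after 15 days in greenhouse, mean of three replicates, graded levels 0–5 (5: >85%, 0: <5%).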

Amaranthus retroflexus = system: Amaranthus retroflexus
In short: as §1

Echinochloa crusgali = system: Echinochloa crusgali
In short: as §1

Setaria viridis = system: Setaria viridis
In short: as §1

Abutilon theophrasti = system: Abutilon theophrasti
In short: as §1

Row | SMILES | weeding effect in post-emergence stage, activity level (growth control rate), Digitaria sanguinalis (Digitaria sanguinalis) | weeding effect in post-emergence stage, activity level (growth control rate), Amaranthus retroflexus (Amaranthus retroflexus) | weeding effect in post-emergence stage, activity level (growth control rate), Echinochloa crusgali (Echinochloa crusgali) | weeding effect in post-emergence stage, activity level (growth control rate), Setaria viridis (Setaria viridis) | weeding effect in post-emergence stage, activity level (growth control rate), Abutilon theophrasti (Abutilon theophrasti)
1 | COc1c(C(=O)Nc2nnc(C)o2)ccc(C(F)(F)F)c1[S@+]([O-])CCCO [Compound 335] | 5 (Level 5: growth control rate is above 85%) | 5 (Level 5: growth control rate is above 85%) | 5 (Level 5: growth control rate is above 85%) | 5 (Level 5: growth control rate is above 85%) | 5 (Level 5: growth control rate is above 85%)
2 | CC=CC[S+]([O-])c1c(C(F)(F)F)ccc(C(=O)Nc2nnc(C)o2)c1F (centres unmarked) [Compound 21] | 5 (Level 5: growth control rate is above 85%) | 5 (Level 5: growth control rate is above 85%) | 5 (Level 5: growth control rate is above 85%) | 5 (Level 5: growth control rate is above 85%) | 5 (Level 5: growth control rate is above 85%)
3 | COCCC[S@@+]([O-])c1c(C(F)(F)F)ccc(C(=O)Nc2nnc(C)o2)c1OC [Compound 345] | 5 (Level 5: growth control rate is above 85%) | 5 (Level 5: growth control rate is above 85%) | 5 (Level 5: growth control rate is above 85%) | 5 (Level 5: growth control rate is above 85%) | 5 (Level 5: growth control rate is above 85%)
4 | COCC[S@@+]([O-])c1c(C(F)(F)F)ccc(C(=O)Nc2nnc(C)o2)c1F [Compound 72] | 5 (Level 5: growth control rate is above 85%) | 5 (Level 5: growth control rate is above 85%) | 5 (Level 5: growth control rate is above 85%) | 5 (Level 5: growth control rate is above 85%) | 5 (Level 5: growth control rate is above 85%)
5 | COc1c(C(=O)Nc2nnc(C)o2)ccc(C(F)(F)F)c1[S@+]([O-])CCC(F)(F)C(F)(F)F [Compound 329] | 5 (Level 5: growth control rate is above 85%) | 5 (Level 5: growth control rate is above 85%) | 5 (Level 5: growth control rate is above 85%) | 5 (Level 5: growth control rate is above 85%) | 5 (Level 5: growth control rate is above 85%)
6 | CSc1c(C(=O)Nc2nnc(C)o2)ccc(C(F)(F)F)c1[S@+]([O-])CC(C)F (some centres unmarked) [Compound 557] | 5 (Level 5: growth control rate is above 85%) | 5 (Level 5: growth control rate is above 85%) | 5 (Level 5: growth control rate is above 85%) | 5 (Level 5: growth control rate is above 85%) | 5 (Level 5: growth control rate is above 85%)
7 | C=CCC[S@@+]([O-])c1c(C(F)(F)F)ccc(C(=O)Nc2nnc(C)o2)c1OC [Compound 312] | 5 (Level 5: growth control rate is above 85%) | 5 (Level 5: growth control rate is above 85%) | 5 (Level 5: growth control rate is above 85%) | 5 (Level 5: growth control rate is above 85%) | 5 (Level 5: growth control rate is above 85%)
8 | COc1c(C(=O)Nc2nnc(C)o2)ccc(C(F)(F)F)c1[S@+]([O-])CCC(F)(F)F [Compound 325] | 5 (Level 5: growth control rate is above 85%) | 5 (Level 5: growth control rate is above 85%) | 5 (Level 5: growth control rate is above 85%) | 5 (Level 5: growth control rate is above 85%) | 5 (Level 5: growth control rate is above 85%)
9 | Cc1nnc(NC(=O)c2ccc(C(F)(F)F)c([S@@+]([O-])C(=O)CC(F)(F)F)c2F)o1 [Compound 169] | 5 (Level 5: growth control rate is above 85%) | 5 (Level 5: growth control rate is above 85%) | 5 (Level 5: growth control rate is above 85%) | 5 (Level 5: growth control rate is above 85%) | 5 (Level 5: growth control rate is above 85%)
10 | CC[S@@+]([O-])c1c(C(F)(F)F)ccc(C(=O)Nc2nnnn2C)c1OC [Compound 445] | 5 (Level 5: growth control rate is above 85%) | 5 (Level 5: growth control rate is above 85%) | 5 (Level 5: growth control rate is above 85%) | 5 (Level 5: growth control rate is above 85%) | 5 (Level 5: growth control rate is above 85%)
11 | CSc1c(C(=O)Nc2nnc(C)o2)ccc(C(F)(F)F)c1[S@+]([O-])CC#N [Compound 564] | 5 (Level 5: growth control rate is above 85%) | 5 (Level 5: growth control rate is above 85%) | 5 (Level 5: growth control rate is above 85%) | 5 (Level 5: growth control rate is above 85%) | 5 (Level 5: growth control rate is above 85%)
12 | CCn1nnnc1NC(=O)c1ccc(C(F)(F)F)c([S@+]([O-])CC)c1OC [Compound 446] | 5 (Level 5: growth control rate is above 85%) | 5 (Level 5: growth control rate is above 85%) | 5 (Level 5: growth control rate is above 85%) | 5 (Level 5: growth control rate is above 85%) | 5 (Level 5: growth control rate is above 85%)
13 | COc1c(C(=O)Nc2nnc(C)o2)ccc(C(F)(F)F)c1[S@+]([O-])CCC(F)(C(F)(F)F)C(F)(F)F [Compound 331] | 5 (Level 5: growth control rate is above 85%) | 5 (Level 5: growth control rate is above 85%) | 5 (Level 5: growth control rate is above 85%) | 5 (Level 5: growth control rate is above 85%) | 5 (Level 5: growth control rate is above 85%)
14 | CCC(C)C[S@@+]([O-])c1c(C(F)(F)F)ccc(C(=O)Nc2nnc(C)o2)c1F (some centres unmarked) [Compound 10] | 5 (Level 5: growth control rate is above 85%) | 5 (Level 5: growth control rate is above 85%) | 5 (Level 5: growth control rate is above 85%) | 5 (Level 5: growth control rate is above 85%) | 5 (Level 5: growth control rate is above 85%)
15 | Cc1nnc(NC(=O)c2ccc(C(F)(F)F)c([S@+]([O-])C(F)(F)C(F)(F)F)c2F)o1 [Compound 31] | 5 (Level 5: growth control rate is above 85%) | 5 (Level 5: growth control rate is above 85%) | 5 (Level 5: growth control rate is above 85%) | 5 (Level 5: growth control rate is above 85%) | 5 (Level 5: growth control rate is above 85%)
16 | CCCn1nnnc1NC(=O)c1ccc(C(F)(F)F)c([S@+]([O-])CC)c1OC [Compound 447] | 5 (Level 5: growth control rate is above 85%) | 5 (Level 5: growth control rate is above 85%) | 5 (Level 5: growth control rate is above 85%) | 5 (Level 5: growth control rate is above 85%) | 5 (Level 5: growth control rate is above 85%)
